Experimental data as given in patent publication US11970521B2, “Neuroprotective beta amyloid core peptides and peptidomimetic derivatives” (priority 2016, dated 2024).
Where no end group is shown, it is not given here. [ ]: non-standard residue; d: D form.

Legend:
[1] = system: NG108-15 cells expressing α4β2-nAChRs; experiment: Cell stress (ROS) assay, α4β2-nAChR-transfected differentiated NG108-15 cells treated with Aβ1-42; assay type: cell-based, rodent; settings: for Aβ1-42-induced ROS, co-treatment with stabilized peptides: daily 100 nM with 100 nM Aβ1-42, FIG. 9B, p<0.05 vs. Aβ1-42 alone
Text: (§1) In Vitro Neuronal Models. The studies were, performed on the NG108-15 rodent hybrid neuroblastoma cell line and primary hippocampal neuron cultures. The cell line can be differentiated, yielding axonal neurites with presynaptic-like varicosities that have the ability to release acetylcholine via exocytosis in response to stimulation. […] The primary hippocampal neuron cultures provide a physiologically relevant model.
(§2) Neuroblestoma Clonal Cell Culture and Transfection. Rodent hybrid neuroblastoma NG108-15 cells were used as a model nerve cell system allowing reconstitution with defined target receptors for Aβ. The cells were cultured in Dulbecco's modified Eagle's medium (DMEM) containing 15% fetal bovine serum (FBS) and differentiated in the presence of reduced serum (1% FBS) and 1 mM dibutyryl cyclic AMP for 72 h, Expression vectors (pcDNA3.1) containing mouse sequences for α4 and β2 nAChR subunits (1:4 ratio respectively) were transiently transfected into the cells using FuGENE HD (ThernioFisher, catalog #PRE2311) for 48 h. Mock-transfected NG108-15 cells, exposed only to FuGENE HO and not plasmid DNA, were used as controls.
Cell Stress Assays. Cells were plated, differentiated and treated for 3 days poor to assay. Cell count and fluorescence intensity of reactive oxygen species (ROS)-positive cells were assessed as a means to measure cellular oxidative stress using an Image-IT® LIVE Green Reactive Oxygen Species Detection Kit. In brief, the cells were treated for three days for NG108-15 cultures end five or ten days for primary hippocampal neuronal cultures. The media was changed every day, thus replenishing with fresh Aβ every 24 h, unless otherwise noted. Thereafter, the cells were incubated with carboxy-H2DCFDA (component A) at 37° C. for 30 min. During the last 5 min of incubation, 2 μg/ml of HOECHST stain (component B) was added to assess, in parallel, the integrity of the cell nuclei. The cells were washed twice with HBS and visualized using an Olympus IX81 epifluorescence microscope at excitation/emission of 495) 529 nm (ROS) and 350/461 nm (HOECHST), respectively.

α4β2-nAChRs = target: T1, α4β2-nAChRs (Mus musculus, UniProt O70174+Q9ERK7); experiment: Ca2+ imaging (Fluo-4) in varicosities of NG108-15 cells expressing α4β2-nAChRs; assay type: cell-based; settings: 100 nM; FIG. 13B
T1 construct: expressed in transfected cells; host or cells: differentiated NG108-15 rodent hybrid neuroblastoma cells, pcDNA3.1 vectors, transient transfection with FuGENE HD
Experimental: as §2
Ca^2+ Imaging Fluo-4, a Ca^2+ indicator dye, was loaded into cells on coverslips and visualization of [Ca^2+] was done via a Nikon PCM 2000 Cameleon AOTF confocal microscope. Each time-series was normalized to baseline fluorescence intensity at time zero (F/F0). After recording a baseline image series, each treatment was perfused over cells for 2.5 minutes or 15 minutes and quantification of relative fluorescence changes was analyzed through imageJ.

[2] = system: primary hippocampal neurons; experiment: Cell stress (ROS) assay in primary hippocampal neuron cultures; assay type: cell-based, mouse; settings: 1 μM with 1 μM Aβ1-42, 5 or 10 days; p<0.0001
Text: Hippocampal Neuron Culture. All animal procedures followed an tACUC-approved protocol in accordance with animal welfare guidelines, Hippocampal neuron cultures even prepared from neonatal mouse pups (0-2d old) of either gender (roughly equivalent numbers) obtained from established colonies of wild-type B6.SJL (background) mice. Following rapid decapitation, brains were removed into ice-cold Neurobasal A medium (NB) containing B-27 supplement, 5% fetal bovine serum and Gentamicin (serum NB). Hippocampi were then isolated under a stereomicroscope. The hippocampi were digested with papain (Worthington, catalog #35N16202) in Hanks with 10 mM cysteine at 37° C. for 15 mins. The preparations were washed by centrifugation in serum NB. The cells were dissociated using sequential trituration with polished Pasteur pipettes of decreasing diameter and collected by low-speed centrifugation. The dissociated cells were preplated in standard tissue culture dishes to remove adherent non-neuronal cells (glia; fibroblasts) for 10-15 mins. […]

[3] = system: mock-transfected NG108-15 cells; experiment: Cell stress (ROS) assay, mock-transfected NG108-15 cells (absent nAChRs) treated with μM Aβ1-42; assay type: cell-based, rodent; settings: co-treatment with nM-μM concentrations and 1 μM Aβ1-42; FIG. 6A; p<0.0001
Text: as §1, §2
Cell Stress Assays. […] Cell count and fluorescence intensity of reactive oxygen species (ROS)-positive cells were assessed as a means to measure cellular oxidative stress using an Image-IT® LIVE Green Reactive Oxygen Species Detection Kit. […]

[4] = system: mock-transfected NG108-15 cells; experiment: Cell death (apoptosis) TUNEL assay, NG108-15 cells without nAChRs; assay type: cell-based; settings: nM-μM co-treatment over four days with 1 μM Aβ1-42; FIG. 14B; trend of greater reduction at μM
Experimental: as §2

[5] = system: primary hippocampal neurons; experiment: Cell survival (cell counts), primary hippocampal neurons; assay type: cell-based, mouse; settings: 1 μM with 1 μM Aβ1-42; FIG. 10B; p<0.0001
Experimental: (§3) Cell Survival. Cell survival was determined by counting cells everyday for 7 or 10 days of treatment. For each condition, all cells in 5 random fields of view were counted and averaged. Percent cell death was calculated based on daily cell counts as a proportion of starting cell count numbers (i.e. day 0).

[6] = system: NG108-15 cells expressing α4β2-nAChRs; experiment: Cell survival (daily cell counts), NG108-15 cells with α4β2-nAChRs; assay type: cell-based, rodent; settings: 100 nM co-treatment with 100 nM Aβ1-42; FIG. 10A; p<0.0001
Experimental: Neuroblestoma Clonal Cell Culture and Transfection. Rodent hybrid neuroblastoma NG108-15 cells were used as a model nerve cell system allowing reconstitution with defined target receptors for Aβ. […] Mock-transfected NG108-15 cells, exposed only to FuGENE HO and not plasmid DNA, were used as controls.
as §3

[7] = system: NG108-15 cells expressing α4β2-nAChRs; experiment: Cell death (apoptosis) TUNEL assay, α4β2-nAChR-transfected NG108-15 cells; assay type: cell-based, rodent; settings: nM co-treatment on day 1, 2 or 3 after start of daily Aβ1-42; FIG. 14A; p<0.0001
Experimental: as §2
Cell Death (Apoptosis) Assay. Cells were plated, differentiated and treated for either 3 or 4 days prior to assay. Apoptotic cells were detected as DNA fragmentation by Click-IT TUNEL Alexa fluor 488. In brief, the cells were treated for four days, exchanging media each day. After the fourth day of treatment, the cells were fixed with freshly prepared 4% paraformaldehyde in PBS at room temperature for 20 min and permeabilized with Triton X-100 (0.25% in PBS) for another 20 min. The cultures were then washed twice and incubated with 50 μL of terminal deoxynucleotidyi transferase reaction buffer (Component A) for 10 min at room temperature. […]

T1 sequence (O70174 31-629): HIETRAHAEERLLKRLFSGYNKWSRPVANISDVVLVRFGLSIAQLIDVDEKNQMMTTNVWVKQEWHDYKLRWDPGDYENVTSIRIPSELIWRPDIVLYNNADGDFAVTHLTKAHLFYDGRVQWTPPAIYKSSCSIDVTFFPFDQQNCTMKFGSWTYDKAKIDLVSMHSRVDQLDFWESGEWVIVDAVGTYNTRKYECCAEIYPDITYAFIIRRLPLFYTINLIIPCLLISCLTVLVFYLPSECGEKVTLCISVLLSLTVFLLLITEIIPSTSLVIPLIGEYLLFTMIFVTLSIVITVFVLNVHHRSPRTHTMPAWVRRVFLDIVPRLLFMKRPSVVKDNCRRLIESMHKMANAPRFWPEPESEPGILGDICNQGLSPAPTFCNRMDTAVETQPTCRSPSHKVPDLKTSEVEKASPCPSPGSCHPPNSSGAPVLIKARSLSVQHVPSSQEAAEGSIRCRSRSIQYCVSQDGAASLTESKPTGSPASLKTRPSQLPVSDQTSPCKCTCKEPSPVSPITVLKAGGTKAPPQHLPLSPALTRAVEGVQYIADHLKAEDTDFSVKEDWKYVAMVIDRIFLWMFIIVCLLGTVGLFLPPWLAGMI
T1 sequence (Q9ERK7 26-501): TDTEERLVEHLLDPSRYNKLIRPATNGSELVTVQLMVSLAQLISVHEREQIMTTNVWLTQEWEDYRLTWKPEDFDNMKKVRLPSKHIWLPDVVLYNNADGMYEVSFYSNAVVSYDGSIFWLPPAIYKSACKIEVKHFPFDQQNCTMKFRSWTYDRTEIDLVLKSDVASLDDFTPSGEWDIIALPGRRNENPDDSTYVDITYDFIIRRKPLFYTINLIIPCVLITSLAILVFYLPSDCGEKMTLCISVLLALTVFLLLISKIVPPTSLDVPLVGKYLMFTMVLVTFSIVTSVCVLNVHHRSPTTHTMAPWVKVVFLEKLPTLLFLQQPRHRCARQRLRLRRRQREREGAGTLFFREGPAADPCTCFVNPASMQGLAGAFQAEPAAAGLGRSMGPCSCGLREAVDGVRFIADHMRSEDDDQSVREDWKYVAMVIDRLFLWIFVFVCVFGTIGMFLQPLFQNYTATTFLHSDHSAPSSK

## Capped-D-[Aβcore]: D-enantiomer N-Aβcore with N-terminal acetylation and C-terminal amidation (Ac-[dY][dE][dV][dH][dH][dQ]-NH2; SMILES CC(=O)N[C@H](Cc1ccc(O)cc1)C(=O)N[C@H](CCC(=O)O)C(=O)N[C@@H](C(=O)N[C@H](Cc1c[nH]cn1)C(=O)N[C@H](Cc1c[nH]cn1)C(=O)N[C@H](CCC(N)=O)C(N)=O)C(C)C)
[1]
  Aβ1-42-induced ROS, co-treatment with stabilized peptides: reduces ROS
α4β2-nAChRs
  Average peak Ca2+ response relative to N-Aβcore: retains activity

## D-[Aβcore]: N-Aβcore converted from L-configuration to D-configuration for each amino acid ([dY][dE][dV][dH][dH][dQ])
[1]
  Aβ1-42-induced ROS, co-treatment with stabilized peptides: reduces ROS
α4β2-nAChRs
  Average peak Ca2+ response relative to N-Aβcore: retains activity

## Tyrosine-Glutamate-Valine-Histidine-Histidine-Glutamine [N-Aβcore]
[2]
  Aβ1-42-induced ROS in primary neurons, co-treatment: reduced the levels of ROS down to untreated (baseline) levels
[3]
  Aβ1-42-induced oxidative stress (ROS) in absence of nAChRs: reduced this oxidative stress compared to Aβ1-42 alone
[4]
  Aβ1-42-induced DNA-fragmentation in absence of nAChRs: reduced DNA-fragmentation compared to Aβ1-42 alone
[5]
  Aβ1-42-induced cell death over 10-day treatments, co-treatment: protected primary hippocampal neurons against β1-42-induced cell death
[1]; nM concentrations, co-treatment or rescue for 3-, 2- or 1-day, 100 nM Aβ1-42, FIG. 5A, p<0.0001
  Aβ1-42-induced ROS, co-treatment or post-treatment (rescue): reduced Aβ1-42-induced ROS back to baseline levels
[6]
  Aβ1-42-induced cell death at 7 days, co-treatment: able to fully protect against Aβ1-42-induced cell death
[7]
  Aβ1-42-induced apoptosis (TUNEL staining): reduced apoptosis compared to Aβ1-42 alone

## capped-N-Aβcore: N-Aβcore with N-terminus capped with an acetyl group and C-terminus with an amide group (Ac-YEVHHQ-NH2)
[1]
  Aβ1-42-induced ROS, co-treatment with stabilized peptides: reduces ROS
α4β2-nAChRs
  Average peak Ca2+ response relative to N-Aβcore: retained its potent activity
